Measured values taken from patent US20250333682A1, “DYNAMIC HYDROGEL AND PULMONARY FIBROSIS BIONIC CHIP” (Anivance AI Corporation, priority 2024, published 2025).

Test system: HFL-1 cells
Test: antifibrotic drug efficacy model on lung fibrosis bionic chip, immunofluorescence staining
Assay type: cell-based, human
Details: TGF-β-induced HFL-1 on dynamic hydrogel with laser dynamic response
Description: Using the dynamic hydrogel obtained from different crosslinking times as the cell culture substrate for fibrosis models (human fetal lung fibroblasts, HFL-1), the expression of α-SMA protein is used as an indicator of myofibroblast differentiation. After culturing the HFL-1 cells for one day, 10 ng/ml of TGF-β is added to stimulate the cells as a control group for α-SMA expression. After two days of culture, a laser device is used to irradiate the cells for 24 hours at frequencies of 0.2 Hz (On-1.5 s/Off-3.5 s) and 0.3 Hz ([…]), respectively. The cells are then fixed and stained for observation. In FIG. 11, “10 min” and “25 min” indicate the fluorescence images of the dynamic hydrogel 5 obtained by UV irradiation for 10 minutes and 25 minutes, respectively.
Furthermore, since ECM remodeling in lung fibrosis patients leads to tissue stiffness, and stiff substrates apply mechanical stress to cells, the activity of YAP occurs through nuclear translocation, with YAP cellular localization depending on mechanical stress. Therefore, HFL-1 cells are cultured in dynamic hydrogels of different hardness (simulating substrates of varying stiffness) and dynamic response environments with laser frequencies to evaluate the effects of substrate hardness and dynamic response on the localization of YAP in lung fibroblasts. […]

Question: With `Cc1ccc(=O)n(-c2ccccc2)c1` [pirfenidone] as the compound, how does the “expression of the fibrotic marker α-SMA” value (pirfenidone 5.3 mM, two days drug, FIG. 13(a)) read?
Answer: inhibited

Question: What about the “inhibiting the mechanical response marker YAP” value (pirfenidone, FIG. 13(b)) of the same compound?
Answer: less significant effect
